Tested on: ribosome (eukaryotic peptidyl transferase / translocation) in reticulocyte lysate translation extract
Assay: RNA-peptide fusion formation (35S Met template labeling) with the long myc template in reticulocyte lysate translation extract, effect of inhibitors
Type: biochemical, rabbit
Details: long myc template (LP154), inhibitor concentration not given, 60 min
From the text: To confirm that the template labeling by ^35 S Met was a consequence of translation, and more specifically resulted from the peptidyl transferase activity of the ribosome, the effect of various inhibitors on the labeling reaction was examined. The specific inhibitors of eukaryotic peptidyl transferase, anisomycin, gougerotin, and sparsomycin (Vazquez, Inhibitors of Protein Biosynthesis (Springer-Verlag, N.Y.), pp. 312 (1979)), as well as the translocation inhibitors cycloheximide and emetine (Vazquez, Inhibitors of Protein Biosynthesis (Springer-Verlag, N.Y.), pp. 312 (1979)) all decreased RNA-peptide fusion formation by ~95% using the long myc template and a reticulocyte lysate translation extract.
Reticulocyte Translation Reactions. Translation reactions were performed either with purchased kits (Novagen, Madison, Wis.) or using extract prepared according to published protocols (Jackson and Hunt, Meth. Enzymol. 96:50 (1983)). Reticulocyte-rich blood was obtained from Pel-Freez Biologicals (Rogers, […].). In both cases, the reaction conditions were those recommended for use with Red Nova Lysate (Novagen). Reactions consisted of 100 mM KCl, 0.5 mM MgOAc, 2 mM DTT, 20 mM HEPES pH 7.6, 8 mM creatine phosphate, 25 µM in each amino acid (with the exception of methionine if ^35 S Met was used), and 40% v/v of lysate. Incubation was at 30° C. for 1 hour. Template concentrations depended on the experiment but generally ranged from 50 nM to 1 μM with the exception of 43-P (FIG. 6H) which was 4 μM.

Row | SMILES | decrease of RNA-peptide fusion formation
1 | CNCC(=O)NC(CO)C(=O)NC1C(C(N)=O)OC(n2ccc(N)nc2=O)C(O)C1O (stereo not drawn) [gougerotin] | ~ 95%
2 | CSC[S@+]([O-])C[C@H](CO)NC(=O)/C=C/c1c(C)[nH]c(=O)[nH]c1=O [sparsomycin] | ~ 95%
3 | COc1ccc(C[C@H]2NC[C@H](O)[C@H]2OC(C)=O)cc1 [anisomycin] | ~ 95%
4 | C[C@@H]1C[C@@H]([C@H](O)CC2CC(=O)NC(=O)C2)C(=O)[C@@H](C)C1 [cycloheximide] | ~ 95%
5 | CC[C@H]1CN2CCc3cc(OC)c(OC)cc3[C@@H]2C[C@@H]1C[C@H]1NCCc2cc(OC)c(OC)cc21 [emetine] | ~ 95%

Target: ribosome A site
Assay: not given
Details: binding the A site, accepting the growing peptide chain, and falling off the ribosome; cited from earlier work

Row | SMILES | Kd [µM]
6 | COc1ccc(C[C@H](N)C(=O)N[C@H]2[C@@H](O)[C@H](n3cnc4c(N(C)C)ncnc43)O[C@@H]2CO)cc1 [puromycin] | 100

Reference: patent publication US6281344A, “Nucleic acid-protein fusion molecules and libraries” (priority 1999, dated 2001)
